{
  "source": "patent US10300069B2",
  "about": "“Carbon monoxide-releasing molecules for therapeutic applications and methods of making and using thereof” (Georgia State University Research Foundation, Inc., priority 2014, dated 2019)",
  "key": {"[1]": {"experiment": "Completion time of reaction of TPCPD with cyclooctynes at 50 mM", "type": "physicochemical", "settings": "50 mM concentration"}, "[2]": {"experiment": "MTT cytotoxicity test of mannose-modified reactants (FIG. 4)", "procedure": "The cytotoxicity test, MTT assay, was performed to define the concentration using TPCPD-M (57, 1 mM) and BCN-M (61, 1 mM) (FIG. 4)."}, "RAW cells": {"tested_on": "RAW cells", "experiment": "WST-1 cytotoxicity test on RAW cells", "type": "cell-based, mouse", "procedure": "In order to assess the cytotoxic effect of the reactants, 1 and 6a, as well as product 31, on RAW cells, the cytotoxicity test WST-1 was performed to examine induction by TPCPD (1) and BCN (6a) over varying concentrations and periods of time (FIGS. 3A-3C).\nDifferent concentrations of each molecule were assessed: from 0.78 to 100 μM for 1 and 31 and 7.8 to 1000 μM for 6a. Different time points were assessed (1 h, 4 h, 8 h and 24 h). Triton 0.1% was used as a positive control of cytotoxicity and the subsequent value was established as 100% of cytotoxicity."}, "[3]": {"experiment": "Intramolecular DARinv (CO release) in DMSO/PBS (7.4) at 37° C.", "type": "physicochemical", "from_the_text": "(§1) Then the reaction mixture was extracted with ethyl acetate, and the obtained organic layer was dried with anhydrous Na2SO4, filtered and concentrated.\nThen the reaction mixture was extracted with ethyl acetate, and the obtained organic layer was dried with anhydrous Na2SO4.\nas §1"}, "TNF-α": {"tested_on": "TNF-α", "experiment": "LPS-induced accumulation of TNF-α by ELISA in RAW 264.7 culture supernatant", "type": "cell-based, mouse", "settings": "tested separately (control)", "procedure": "RAW264.7 cell were seeded in 6-well plates and incubated overnight. Cells were then stimulated with LPS (10 mg/mL) for 1 h. TPCPD (1) and BCN (6a) (different concentrations) were added to well after 1 hr LPS treatment (same for all wells). As a control, the product (31) was used at same concentration as the anti-inflammation test to confirm that the suppression of TNF-α is result of CO instead of the reagent (or product) themselves (compounds 1, 6a, and 31). TNF-α secretion in the medium was measured with an eBioscience kit (mouse TNF-α ELISA kit, eBioscience, San Diego, Calif., USA).\nTNF-α is a major pro-inflammatory cytokine, mainly secreted from macrophages and dendritic cells. Its production is induced in vitro by stimulation with LPS. The accumulation of TNF-α was assessed by ELISA in the culture supernatant of the macrophage cell line, RAW 264.7 (FIG. 5). The cells were stimulated for 1 h and then co-treated by […] for 24 h. […] A 50% decrease of the LPS-induced accumulation of TNF-α was observed after co-treatment with TPCPD-M and BCN-M at the respective concentration of 1 mM+1 mM.\nAs a control, the effect of the TPCPD-M and BCN-M were tested separately (FIG. 5)."}, "[4]": {"experiment": "Water solubility of mannose-modified reactants", "type": "physicochemical"}, "[5]": {"settings": "8 h, within the concentration range studied"}},
  "data": [
    {"molecule": "fluorocyclooctyne [fluorocycolooctyne]", "values": [
      {"measurement": "time after which the reaction with TPCPD had not reached completion", "setting": "[1]", "result": "> 24", "unit": "h"}
    ]},
    {"molecule": "NCC(=O)O.[C-]#[O+].[C-]#[O+].[C-]#[O+].[Cl][Ru]", "note": "[CORM3, reference compound]", "values": [
      {"measurement": "decrease in cell viability", "setting": "[2]; 1 mM concentration", "result": 30, "unit": "%"}
    ]},
    {"molecule": "OC[C@@H]1[C@H]2CCc3c(c(-c4ccccc4)c(-c4ccccc4)c(-c4ccccc4)c3-c3ccccc3)CC[C@@H]12", "note": "[compound 31]", "values": [
      {"measurement": "cytotoxicity", "setting": "RAW cells; [5]", "result": "Neither 6a (FIG. 3B) and nor the product (FIG. 3C) displayed any sign of cytotoxicity"},
      {"measurement": "cytotoxicity", "setting": "RAW cells; 24 h, within the concentration range tested", "result": "not cytotoxic"}
    ]},
    {"molecule": "C#CCOc1ccccc1C1=C2C(=C(C(=O)N3CCOCC3)C1=O)c1cccc3cccc2c13", "note": "[compound 51]", "values": [
      {"measurement": "incubation time after which the intramolecular DARinv reaction was finished", "setting": "[3]", "result": 16, "unit": "h"}
    ]},
    {"molecule": "OCC1[C@H]2CCC#CCC[C@@H]12", "note": "(stereo partly drawn) [BCN]", "values": [
      {"measurement": "cytotoxicity", "setting": "RAW cells; [5]", "result": "Neither 6a (FIG. 3B) and nor the product (FIG. 3C) displayed any sign of cytotoxicity"},
      {"measurement": "cytotoxicity", "setting": "RAW cells; 24 h, 1 mM", "result": 60, "unit": "%"},
      {"measurement": "time in which the reaction with TPCPD finished", "setting": "[1]", "result": "≤ 5", "unit": "min"}
    ]},
    {"molecule": "O=C(NCCOCCOCCOC1OC(CO)C(O)C(O)C1O)OCC1[C@H]2CCC#CCC[C@@H]12", "note": "(stereo partly drawn) [compound 61]", "values": [
      {"measurement": "inhibition of the LPS-induced accumulation of TNF-α", "setting": "TNF-α", "result": "do not lead to any inhibition"},
      {"measurement": "cytotoxicity (MTT)", "setting": "[2]; 24 h of treatment, within 1 mM concentration", "result": "none of the compounds led to any cytotoxicity"},
      {"measurement": "water solubility", "setting": "[4]", "result": "water soluble"}
    ]},
    {"molecule": "C1#CCCCCCC1", "note": "[cyclooctyne]", "values": [
      {"measurement": "time in which the reaction with TPCPD finished", "setting": "[1]", "result": 15, "unit": "min"}
    ]},
    {"molecule": "O=C1C(c2ccccc2)=C(c2ccccc2)C(c2ccccc2)=C1c1ccccc1", "note": "[TPCPD]", "values": [
      {"measurement": "toxicity (cytotoxicity, Triton 0.1% = 100%)", "setting": "RAW cells; 8 h, 50 μM", "result": 44, "unit": "%"},
      {"measurement": "toxicity (cytotoxicity, Triton 0.1% = 100%)", "setting": "RAW cells; 8 h, 100 μM", "result": 49, "unit": "%"},
      {"measurement": "cytotoxicity", "setting": "RAW cells; 24 h, concentrations higher than 12.5 μM", "result": "more than 50%"}
    ]}
  ]
}
